This note sets out measurements from paper PMC7317212 (Chemmedchem, 2020).

The structures appear in SMILES notation. Bounds are passed on as bounds.

In one assay the target is T1, mGAT4 (Mus musculus, UniProt P31650).
T1 construct: expressed in transfected cells; host or cells: HEK293
T1 sequence (P31650 1-627): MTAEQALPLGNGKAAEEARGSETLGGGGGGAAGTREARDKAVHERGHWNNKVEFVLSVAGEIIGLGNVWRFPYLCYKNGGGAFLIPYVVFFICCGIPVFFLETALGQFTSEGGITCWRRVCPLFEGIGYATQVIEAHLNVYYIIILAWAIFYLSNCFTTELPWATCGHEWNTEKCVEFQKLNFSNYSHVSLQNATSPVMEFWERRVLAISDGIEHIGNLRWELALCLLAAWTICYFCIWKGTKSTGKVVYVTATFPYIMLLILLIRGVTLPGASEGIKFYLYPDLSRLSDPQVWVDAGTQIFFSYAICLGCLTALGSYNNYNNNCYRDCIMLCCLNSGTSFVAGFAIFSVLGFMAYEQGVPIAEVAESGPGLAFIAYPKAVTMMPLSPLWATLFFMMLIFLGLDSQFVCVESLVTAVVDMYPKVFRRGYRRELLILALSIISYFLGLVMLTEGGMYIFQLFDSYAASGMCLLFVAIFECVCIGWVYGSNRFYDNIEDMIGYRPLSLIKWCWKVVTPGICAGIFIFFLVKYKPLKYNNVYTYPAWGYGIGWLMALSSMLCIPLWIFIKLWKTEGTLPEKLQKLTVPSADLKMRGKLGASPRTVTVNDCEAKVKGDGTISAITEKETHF
Put plainly: [^3H]GABA uptake assay, HEK293 cells expressing mGAT4. The settings on record: for remaining activity at 100 µM: HEK293, in presence of 100 μM compound; for IC50: [^3H]GABA uptake, pIC50±SEM. The assay is classed as cell-based. As to the method: (§1) For compounds with pIC50 ([^3H]GABA uptake assay) or pK i (MS Binding Assays) values close to or above 5.0, these experiments were repeated twice and SEM have been calculated.
(§2) [^3H]GABA uptake assays: The [^3H]GABA uptake assays were performed according to Kragler et al.33 Cells were grown in 150 cm^2 plates to a confluence of 70–90 % up to passage 25. After detachment the cells were centrifuged 5 min at 500×g, washed for three times in phosphate buffered saline and, finally, resuspended in Krebs buffer (2.5 mM CaCl2, 1.2 mM MgSO4, 1.2 mM KH2PO4, 4.7 mM KCl, 11 mM glucose, 25 mM Tris, 119 mM NaCl, pH 7.2). The uptake assays were performed with aliquots of the resulting cell suspension (about 100000–200000 cells per well) in a total volume of 250 μl in 96 well 2.2 mL deep well plates. The cells were equilibrated for 25 min in Krebs buffer in the presence of the test compound at 37 °C in a gently shaking water bath. […] After addition of 25 μl of a solution containing [^3H]GABA (2.22 TBq/mmol, ARC, St Louis, MO, USA) and unlabeled GABA in Krebs (final concentration 8 nM [^3H]GABA and 32 nM unlabeled GABA for mGAT1, mGAT3, mGAT4 and 20 nM [^3H]GABA and 20 nM unlabeled GABA for mGAT2) the cells were incubated for further 4 min (mGAT1, mGAT3, mGAT4) or 10 minutes (mGAT2), respectively. The incubation was stopped by filtration through Sartorius MGC micro glass fiber filters pre‐soaked for 1 h in 0.9 % NaCl by means of a Brandell MWXR‐96TI cell harvester (Brandell, Gaithersburg, MD, USA) under reduced pressure. The filters were rinsed two times with cold 0.9 % NaCl and subsequently transferred to 96 well sample plates (Perkin Elmer LAS, Boston, MA, USA). After addition of 200 μl Rotiszint Eco Plus (Roth, Karlsruhe, Germany) per well the radioactivity was determined in a microbeta liquid scintillation counter (Perkin Elmer LAS, Boston, MA, USA). Non‐specific uptake was determined in presence of 10 mM GABA for mGAT1, mGAT3 and mGAT4 or 100 mM GABA for mGAT2, respectively. The results are expressed as means±S.E.M. of at least three separate experiments, each carried out in triplicate.

The next assay concerns the target T2, mGAT3 (Mus musculus, UniProt P31649).
T2 construct: expressed in transfected cells; host or cells: HEK293
T2 sequence (P31649 1-602): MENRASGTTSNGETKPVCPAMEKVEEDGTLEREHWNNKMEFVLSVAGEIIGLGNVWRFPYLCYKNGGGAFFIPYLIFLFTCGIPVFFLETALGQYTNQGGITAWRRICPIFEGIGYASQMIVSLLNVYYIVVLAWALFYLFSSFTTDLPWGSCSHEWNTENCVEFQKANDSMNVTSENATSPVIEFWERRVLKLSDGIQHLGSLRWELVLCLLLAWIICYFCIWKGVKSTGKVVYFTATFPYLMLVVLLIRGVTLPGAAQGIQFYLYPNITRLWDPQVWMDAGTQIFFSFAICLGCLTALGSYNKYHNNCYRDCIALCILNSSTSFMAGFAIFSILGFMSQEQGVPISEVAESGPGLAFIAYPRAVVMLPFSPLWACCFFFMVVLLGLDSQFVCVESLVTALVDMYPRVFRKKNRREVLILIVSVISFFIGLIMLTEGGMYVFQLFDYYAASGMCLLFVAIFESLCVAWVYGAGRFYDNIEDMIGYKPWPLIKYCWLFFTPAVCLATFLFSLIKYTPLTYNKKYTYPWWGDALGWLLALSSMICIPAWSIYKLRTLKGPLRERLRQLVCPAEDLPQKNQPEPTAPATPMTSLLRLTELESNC
Put plainly: [^3H]GABA uptake assay, HEK293 cells expressing mGAT3. The assay is classed as cell-based. The settings on record: HEK293; in presence of 100 μM compound. As to the method:
as §1, §2

The target of a further assay is T3, mGAT2 (Mus musculus, UniProt P31651).
T3 construct: expressed in transfected cells; host or cells: HEK293
T3 sequence (P31651 1-614): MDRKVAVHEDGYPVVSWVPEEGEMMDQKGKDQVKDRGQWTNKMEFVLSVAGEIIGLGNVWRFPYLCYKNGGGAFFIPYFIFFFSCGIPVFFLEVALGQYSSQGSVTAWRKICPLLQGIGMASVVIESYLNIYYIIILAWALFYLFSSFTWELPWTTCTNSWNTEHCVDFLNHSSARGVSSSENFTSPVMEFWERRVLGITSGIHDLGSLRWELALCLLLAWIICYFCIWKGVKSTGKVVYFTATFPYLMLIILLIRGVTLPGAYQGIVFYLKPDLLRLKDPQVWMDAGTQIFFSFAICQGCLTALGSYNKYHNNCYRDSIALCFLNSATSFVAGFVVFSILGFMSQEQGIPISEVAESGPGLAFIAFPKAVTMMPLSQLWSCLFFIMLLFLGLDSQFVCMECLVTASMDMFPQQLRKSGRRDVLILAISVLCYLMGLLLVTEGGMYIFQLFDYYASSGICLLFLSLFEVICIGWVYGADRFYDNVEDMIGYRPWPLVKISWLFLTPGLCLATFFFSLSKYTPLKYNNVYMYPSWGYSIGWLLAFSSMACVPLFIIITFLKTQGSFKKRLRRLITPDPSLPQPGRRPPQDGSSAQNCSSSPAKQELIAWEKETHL
In words: [^3H]GABA uptake assay, HEK293 cells expressing mGAT2. It counts as cell-based. The settings on record: HEK293; in presence of 100 μM compound. As to the method: as §1, §2

Assay [1] has as its target T4, mGAT1 (Mus musculus, UniProt P31648).
T4 construct: expressed in transfected cells; host or cells: HEK293
Put plainly: [^3H]GABA uptake assay, HEK293 cells expressing mGAT1. The assay is classed as cell-based. The settings on record: HEK293; in presence of 100 μM compound. As to the method:
as §1, §2

Assay [2] has as its target T4, mGAT1. Put plainly: MS Binding Assay with NO711 as native MS marker. The settings on record: for remaining activity at 100 µM: in presence of 100 μM compound, read-out: remaining specific NO711 binding (mGAT1). The protocol:
as §1
MS Binding Assays: The MS Binding Assays were performed with mGAT1 membrane preparations obtained from a stably mGAT1 expressing HEK293 cell line and NO711 as unlabeled marker in competitive binding experiments as previously described in detail.34 In short, test compounds were investigated at 7 concentrations in presence of 10 nM NO 711 in competition experiments. Non specific binding was defined as binding remaining in the presence of 100 mM GABA. Incubation was terminated by transfer of 200 μL per well onto a 96‐well filter plate (Acroprep, glass fibre, 1.0 μm, 350 μL, Pall, Dreieich, Germany) with a 12 channel pipette. After rapid vacuum‐filtration the filters were washed with ice cold 0.9 % NaCl (5×150 μL) and dried at 50 °C for 60 min. Afterwards, the filters were eluted with 100 μL methanol containing [^2H10]NO711 (1.4 nM) as internal standard per well into a deep‐well plate by application of vacuum. This step was repeated twice resulting in a total elution volume of 300 μL. Finally, a volume of 130 μL ammonium formate buffer (10 mM, pH 7.0) was added per well and the generated samples analyzed by LC‐ESI‐MS/MS using a API 3200 as described in detail previously.40

As to `COCc1ccc(C(OCCN2CCCC(C(=O)O)C2)(c2ccc(COC)cc2)c2ccc(COC)cc2)cc1` (racemic) [5 i, rac‐ 1‐(2‐{Tris[4‐(methoxymethyl)phenyl]methoxy}ethyl)piperidine‐3‐carboxylic acid], the remaining activity at 100 µM stood at 76.1% at mGAT4; 68.3% on mGAT3; 72.6% on mGAT2; 90.7% at mGAT1 [1]; 92.7% on mGAT1 [2].

Take `COc1ccc(C(OCCN2CCCC(C(=O)O)C2)(c2ccc(OC)cc2)c2ccc(C(N)=O)cc2)cc1` (racemic) [5 j, rac ‐1‐{2‐[(4‐Carbamoylphenyl)bis(4‐methoxyphenyl)methoxy]ethyl}‐piperidine‐3‐carboxylic acid]: the remaining activity at 100 µM on mGAT4 came to 65.2%; on mGAT3, 82.1%; at mGAT2, 96.1%; at mGAT1 [1] it was 79.6%; at mGAT1 [2] it was 87%. For the same compound, the half-maximal inhibitory concentration (IC50) against mGAT4 is over 100 µM.

For `COc1ccc(C(OCCN2CCCC(C(=O)O)C2)(C(=O)O)c2ccc(OC)cc2)cc1` (racemic) [5 k, rac ‐1‐{2‐[Carboxybis(4‐methoxyphenyl)methoxy]ethyl}piperidine‐3‐carboxylic acid], the remaining activity at 100 µM at mGAT4 is 96.5%; at mGAT3 it was 94%; on mGAT2 it was 101%; at mGAT1 [1] it was 100%; on mGAT1 [2], 96.9%.

On to `COc1ccc(C(O)(CCCN2CCCC(C(=O)O)C2)c2ccc(OC)cc2)cc1` (racemic) [5 l, rac ‐1‐[4‐Hydroxy‐4,4‐bis(4‐methoxyphenyl)butyl]piperidine‐3‐carboxylic acid], for which the remaining activity at 100 µM was 92% on mGAT4, 80.7% at mGAT3, 62.5% at mGAT2 and 69.5% at mGAT1 [1]. Also, the Ki on mGAT1 [2] (MS Binding Assay, NO711 marker, pKi±SEM, read-out: pK i mGAT1 (converted)) is 32.4 µM.

With `COc1ccc(C(OCCN2CCCC(C(=O)O)C2)(c2ccc(CO)cc2)c2ccc(OC)cc2)cc1` (racemic) [5 m, rac‐1‐(2‐{[4‐(Hydroxymethyl)phenyl]bis[4‐methoxyphenyl]methoxy}‐ethyl)piperidine‐3‐carboxylic acid], the IC50 against mGAT4 is 12.6 µM. Also, the remaining activity at 100 µM at mGAT3 amounted to 58.7%; on mGAT2, 91.6%; at mGAT1 [1] it was 78.1%; at mGAT1 [2], 55%.

`COc1ccc(C(OCCN2CCCC(C(=O)O)C2)(c2ccc(CNCC(=O)O)cc2)c2ccc(OC)cc2)cc1` (racemic) [5 n, rac‐ 1‐{2‐[(4‐{[(Carboxymethyl)amino]methyl}phenyl)bis(4‐methoxy‐phenyl)methoxy]ethyl}piperidine‐3‐carboxylic acid]: the remaining activity at 100 µM on mGAT4 is 72.2%; at mGAT3, 90.9%; on mGAT2, 96.1%; on mGAT1 [1], 81.8%; at mGAT1 [2] it was 86.2%.

As for `COc1ccc(C(OCCN2CCCC(C(=O)O)C2)(c2ccc(CNCCC(=O)O)cc2)c2ccc(OC)cc2)cc1` (racemic) [5 o, rac‐ 1‐{2‐[(4‐{[(2‐Carboxyethyl)amino]methyl}phenyl)bis(4‐methoxy‐phenyl)methoxy]ethyl}piperidine‐3‐carboxylic acid], the remaining activity at 100 µM at mGAT4 amounted to 56.3%; on mGAT3 it was 89.1%; at mGAT2, 69.5%; on mGAT1 [1], 94.4%; at mGAT1 [2], 82.3%.

On mGAT4, `COc1ccc(C(OCCN2CCCC(C(=O)O)C2)(c2ccc(CNC3(C(=O)O)CC3)cc2)c2ccc(OC)cc2)cc1` (racemic) [5 p, rac‐ 1‐{2‐[(4‐{[(1‐Carboxycyclopropyl)amino]methyl}phenyl)bis(4‐methoxyphenyl)methoxy]ethyl}piperidine‐3‐carboxylic acid] gave a half-maximal inhibitory concentration (IC50) of 13.2 µM. The remaining activity at 100 µM was found to be 69.1% at mGAT3, 76% at mGAT2, 78.2% at mGAT1 [1] and 58.8% on mGAT1 [2].
